Test results reported in patent US11739053B2, “P62-ZZ chemical inhibitor” (ID4PHARMA, LLC, priority 2011, dated 2023).

Key:
MM1.S myeloma cell line = assay: MM1.S myeloma cell proliferation, MTT assay; assay type: cell-based, human; conditions: 48 h
Description: FIG. 4A-C: 4A. Effect of p62-ZZ inhibitor #3 on myeloma cell growth. MM cell growth was assayed by MTT assay. Data are shown as mean±SD (n=5). FIG. 4B. MTT assay of CD138(+) primary myeloma cells. Data are shown as mean±SD (n=5). FIG. 4C. Effects of p62-ZZ inhibitors on human stromal cell growth. Primary human stromal cells (5×10^3/well) were cultured with 10 μM of p62-ZZ inhibitor (#1-6) containing 10% FCS in IMDM for 48 hours. Stromal cells growth was assayed by MTT assay. Data are shown as the mean±SD (n=5). *P<0.01 compared to vehicle treated culture. MM1.S (3×10^5 cells/well) or CD138 (+) (1×10^5 cells/well) primary myeloma cells were incubated in 96-well plates in the presence of RPMI-1640-10% FCS and various concentrations of p62-ZZ inhibitor #3 at 37° C. 5% CO2 for 48 h to determine the IC50 for inhibiting myeloma cell proliferation.

MM1.S cells [1] = assay: Reactive oxygen species detection in MM1.S cells; assay type: cell-based, human; conditions: 10 μM, 6 hours
Description: (§1) FIG. 9A-C: 9A. […] MM1.S cells were cultured with 10 μM of p62-ZZ antagonist for the indicated time, and then cell lysates were collected. Caspase 9, 7 and 3 were detected by Western blotting using anti-caspase 9, 7 and 3 specific antibodies (Cell Signaling). FIG. 9B. Detection of Apoptosis using the TUNEL reaction with MM1.S cells treated with p62-ZZ antagonist. MM1.S cells were treated with 10/μM of p62-ZZ antagonist #3 for 24 hours and then the cells were collected and mounted on glass slides using the cytospin procedure. Terminal deoxynucleotidyl transferase nick end labeling (TUNEL) reactions were conducted using an In Situ Cell Death Detection Kit (Roche) according to the manufacturer's instructions. The stained cells were analyzed using a fluorescence microscope equipped with standard green filter. FIG. 9C. The p62-ZZ antagonist induced Reactive Oxygen Species in MM1.S cells. MM1.S cells were treated with 10 μM of p62-ZZ antagonist #3 for 6 hours. Cells were collected and stained for Reactive Oxygen Species (ROS) using a Total ROS detection kit (Enzo) according to the manufacturer's instructions. The expression of apoptosis markers in p62-ZZ antagonist treated on 25 MM cells was determined to determine the mechanism action of this antagonist.

[2] = Exploratory metabolic studies
human OCL formation = assay: Human osteoclast (OCL) formation; assay type: cell-based; conditions: various concentrations, 2 weeks, 1 ng/ml TNFα
Description: FIG. 7A-C: 7A. CFU-Blast colony formation. Human CD34(+) cells were cultured with p62-ZZ inhibitor #3 and 1 ng/ml of rhIL-3 IL-6 and SCF for 7 days. Data are shown as the mean±SD (n=5). FIG. 7B. Human OCL formation. Non-adherent mononuclear cells (2.5×10^7 cells/10-cm dish) derived from human bone marrow samples were cultured in α-MEM containing 10% FCS, 100 pg/ml recombinant human GM-CSF(R & D) for 7 days. Then the cells were collected and plated (cell density is 1.0×10^6 cells/nil) in α-MEM containing 20% horse serum with 1 ng/ml TNFα. Half-media changes were performed twice a week containing various concentrations of the p62-ZZ inhibitor #3. The cultures were incubated for a total of 2 weeks at 37° C. with 5% CO2 and 95% humidity. The osteoclasts were stained with the 23C6 antibody which recognizes CD51/61. Data are shown as the mean±SD (n=5). *P<0.01 compared to vehicle treated cultures. 7C. OCL formation by wild type and p62−/− mouse osteoclast precursors. Data is shown as the mean±SD (n=4). *: P<0.01 compared to no-inhibitor cultures. Whether p62-ZZ inhibitor #3 affects hematopoesis since osteoclast precursors are derived from hematopoietic cells was examined. […] Colonies were scored after 7 days of culture using an inverted microscope.

[3] = system: GFP-labeled human myeloma MM1.S cells; assay: GFP-labeled MM1.S myeloma cell growth with/without stromal cells, fluorescence microscopy; assay type: cell-based; conditions: 10 μM, 72 hours
Description: FIG. 3 is a graph depicting MM cell growth inhibition. Data is shown as the mean±SD (n=5). *: P<0.01 compared to no-inhibitor cultures without stromal cells. **: P<0.01 compared to no-treatment co-cultured with stromal cells.
Compound 3 was tested for its capacity to block MM-stimulated signaling in marrow stromal cells, thereby resulting in less bone destruction and MM growth. The effects of the compound 3 on GFP-labeled MM1.S myeloma cell growth with/without stromal cells, IL-6 and VCAM-1 expression on stromal cells induced by TNF-α and OCL formation, and TNF-α induced PKCζ phosphorylation, the specific kinase enzyme activated p62-ZZ, were examined. GFP-labeled MM1.S myeloma cells or normal human CFU-GM, a source of OCL precursors, were then co-cultured with human stromal cells with the p62-ZZ inhibitor. The 10 μM of inhibitor compound 3 blocked MM cell growth by 90% compared to vehicle (0.1% DMSO). […] VCAM-1 expression and IL-6 production induced by TNF-α on stromal cells was blocked by 30% and 90% respectively compared to vehicle levels. Furthermore, TNF-α induced PKC, phosphorylation blocked was in stromal cells and MM1.S when pre-treated with this p62-ZZ inhibitory compound for 3 hours.
Primary human bone marrow stromal cells were maintained in 10% FCS-IMDM. Stromal cells (1.5×10^3 cells/well) were cultured one day prior to the start of co-culture. Green fluorescent protein (GFP)-labeled human myeloma MM1.S cells (7.5×10^3 cells/well) were then cultured with/without stromal cells in the presence or absence of the p62-ZZ inhibitors (#1-6) for 72 hours. MM cell growth was determined by fluorescence microscopy.

MM1.S cells [4] = assay: TUNEL apoptosis detection in MM1.S cells; assay type: cell-based, human; conditions: 10 μM, after 24 hours
Description: as §1

OCCNCc1ccc(OCc2ccccc2)c(OCc2ccccc2)c1 [Compound 3, 2-[[3,4-bis(phenylmethoxy)phenyl]methylamino]ethanol]
growth of MM1.S myeloma cell line (result in words) (MM1.S myeloma cell line; FIG. 4A): directly inhibited | IC50 (MM1.S myeloma cell line; Homo sapiens, MM1.S): 6.19 µM | reactive oxygen species (ROS) production (MM1.S cells [1]): induced reactive oxygen species (ROS) production | distinct peaks in metabolic studies (likely hydroxylation or glucuronidation) [2]: 3 | human OCL formation (human OCL formation): blocked human OCL formation dose dependently | MM cell growth (result in words) ([3]; FIG. 3): directly blocked MM cell growth | MM cell growth blocked compared to vehicle ([3]; vs vehicle (0.1% DMSO)): 90% | TUNEL staining of cells (MM1.S cells [4]): positive TUNEL staining
